According to patent US11666562B2, “Ilaprazole for inhibiting the release of enveloped viruses from cells” (Northwestern University, priority 2020, dated 2023):

Assays:
HSV-2 [1] = experiment: Release of HSV-2 from infected Vero cells, plaque assay; format: cell-based, Herpes simplex virus-2(A/B-G); details: for EC50: Human alphaherpesvirus 2, MOI 0.1, 24 h, read-out: EC50, inhibition of HSV-2 release; for Total infectious virus (released plus inside cells), HSV-2: 24 h, freeze/thaw lysate
Method: We infected Vero cells with HSV-1 and HSV-2 for two hours at a multiplicity of infection (MOI in pfu\cell) of 0.1 to assay the antiviral activity of tenatoprazole. Following infection, cells were treated with different concentrations of tenatoprazole. After 24 or 48 h the media fractions were collected and released virus titers were determined by standard plaque assays (30). Tenatoprazole caused a 3-log drop of HSV-1 and 4-5 log drop of HSV-2 in released infectious virus from Vero cells at 24 hours after infection in a dose dependent manner (Table 1, shown in FIG. 5, columns 2 and 3) with calculated EC50's ranging from 48-80 μM. Total virus titer was also determined to differentiate between virus released into the media and infectious particles present in cell lysate. […] The concentrations of tenatoprazole that blocked virus release were nontoxic to Vero cells as determined by a 96® AQueous One Solution cell proliferation assay reagent (Table 1, shown in FIG. 5, column 7). Taken together, tenatoprazole inhibited levels of both released and infectious virus particles without affecting cell viability at effective concentrations.
To examine the effects of the compounds on the release of HSV-2 from Vero cells, we infected the cells with virus two hours prior to treatment with media containing different concentrations of compound. We incubated the cells for 24 or 48 hours and then collected the cell media fractions.
Herpesvirus infection of Vero cells. Vero cells (0.8×10^6 cells/well of a 6-well plate) were infected with HSV-1 or HSV-2 at a MOI of 0.1 pfu/cell in DMEM with 1% serum for two hours in the C02 incubator at 37° C. In one experiment looking at the effect of tenatoprazole on HSV-2 release from cells 24 and 48 h a MOI of 3 pfu/cell was used. The cell supernatants were aspirated and replaced with 1 ml (24 h) or 2 ml (48 h and 72 h) of DMEM with 1% serum with DMSO or different concentrations of drug (tenatoprazole, ilaprazole, or analogs) dissolved in DMSO. After 24 or 48 h incubation, the cell supernatant was collected and frozen at −80° C. Virus titer in the cell media fraction was determined by standard plaque assays using 10-fold serial dilutions of cell supernatants of Vero cells and incubated for 48 h after which cells were fixed and stained to count the plaques (22). For determination of total virus (extracellular+cytoplasmic), virus infected cells were incubated for 24 h with and without drug presence, then the plate of cells were subjected to 3 cycles of freeze/thawing (−80° C./37° C.) 30 min each prior to collecting the supernatant after centrifugation for measurement of total virus titer. Virus titer was measured by standard plaque assay as above.
Drug potency and cell toxicity. EC50 calculations were determined by using AAT Bioquest's EC50 calculator. Cell toxicity at different concentrations of drugs as indicated was determine using the Cell Proliferation Reagent WST-1 (Roche Diagnostics) or cellular 96® Aqueous One Reagent viability reagent according to manufacturer's instructions. For 293T cells, the concentration of DMSO was 0.2% or less and assays were carried out with DMEM with 10% serum. Cell toxicity experiments were repeated twice.

HSV-2 [2] = experiment: Transmission electron microscopy of HSV-2 infected Vero cells, location of virus particles; format: cell-based, Herpes simplex virus-2(A/B-G); details: 24 h, 80 cells
Method: Cellular location of tenatoprazole inhibition. We next imaged herpesvirus infected-Vero cells using transmission electron microscopy to determine the site of inhibition of release of virus and whether it was similar to observations of HIV-1 release from 293T cells. Vero cells grown on glass cover slips were infected with HSV-2 at MOI of 0.1 pfu/cell for 2 h and then treated for 24 h with 105 μM tenatoprazole or vehicle control. In the no drug control, virus particles were in both the nucleus and cytoplasm near the cell surface (FIG. 2A). In the tenatoprazole-treated cells the cytosol of all of the intact cells was largely devoid of virus particles (FIG. 2B). Instead, we observed large pockets of granular material accumulated in the nucleus and immature virus particles inside the nucleus and lining the inside of the nuclear membrane (inset, B).
We next carried out a transmission electron microscopic examination of cells infected with HSV-2 at a MOI 0.1 in the presence and absence of 18 μM ilaprazole to determine if this drug causes the accumulation of virus particles in the nucleus of cells similar to tenatoprazole. Without drug, we observe particles in the cytoplasm and in the nucleus (FIGS. 4A & B), in the presence of drug little or no viral particles are found in the cytoplasm (FIGS. 4C & D). In both heavily infected cells (FIGS. 4A & C) and mildly infected cells (FIGS. 4B & D), treatment lead to particles being detected in the nucleus and arrayed along the nuclear membrane but lacking in the cytosol. […] Similar results were obtained with HSV-1 infected cells (FIG. 4E-H). Particles are seen in both the cytoplasm and nucleus in the absence of drug and just in the nucleus in the presence of drug. […] The lower total infectious virus detected in Table 3 (FIG. 7) is consistent with blockage of the virus passaging out of the nucleus into the cytoplasm where membranes are exchanged and virus becomes infectious.
Transmission electron Microscopy. Vero cells on glass cover slips were infected with HSV-2 at a MOI of 0.1 for two hours. Then 105 μM of tenatoprazole or 18 μM Ilaprazole was added and cells incubated for 24 hours. Tissue samples were fixed in 0.1 M sodium cacodylate buffer pH 7.3 containing 2% paraformaldehyde and 2.5% glutaraldehyde and post-fixed with 2% osmium tetroxide in unbuffered aqueous solution. The samples were rinsed with distilled water, en bloc stained with 3% uranyl acetate, rinsed with distilled water, dehydrated in ascending grades of ethanol, transitioned with propylene oxide, embedded in the resin mixture of Embed 812 kit and cured in a 60° C. oven. Samples were sectioned on a Leica Ultracut UC6 ultramicrotome. 1 μm thick sections were collected and stained with Toluidine Blue O and 70 nm sections were collected on 200 mesh copper grids; thin sections were stained with uranyl acetate and Reynolds lead citrate. Transmission electron microscopy (TEM) was performed on a FEI Tecnai Spirit G2.

In the case of `COc1ccnc(C[S+]([O-])c2nc3ccc(-n4cccc4)cc3[nH]2)c1C` (stereo not drawn) [Ilaprazole, 2-[(4-methoxy-3-methylpyridin-2-yl)methylsulfinyl]-6-pyrrol-1-yl-1H-benzimidazole], the EC50 (HSV-2 [1]; Vero cells) is reported as 3 to 9 µM, the “Anti-HSV-2 activity (release from Vero cells), in words” value (HSV-2 [1]; Table 2, 24 h) is reported as “potent antiviral activity” and the “Total infectious virus (released plus inside cells), HSV-2” value (HSV-2 [1]; Vero cells) is reported as “significant drop in total virus”. The “Average number of virus particles in the nucleus” value (HSV-2 [2]; HSV-2, 18 μM ilaprazole) was 31 particles, the “Range of number of virus particles in the nucleus” value (HSV-2 [2]; HSV-2, 18 μM ilaprazole) was 9-56 particles and the “Virus particles in the cytoplasm” value (HSV-2 [2]; HSV-2, 18 μM ilaprazole) was 0 particles.
`COc1ccc2[nH]c([S+]([O-])Cc3ncc(C)c(OC)c3C)nc2n1` (stereo not drawn) [Tenatoprazole] was tested, and the EC50 (HSV-2 [1]; Vero cells) was 48 to 80 µM, the “Total infectious virus (released plus inside cells), HSV-2” value (HSV-2 [1]; Vero cells) was “reduced by tenatoprazole, but not as strongly as virus released into the media” and the “Drop in released infectious HSV-2” value (HSV-2 [1]; Vero cells, 24 hours after infection, dose dependent) was 4-5 log. For the same compound, the “Duration of inhibition of HSV-2 release after a single application” value (HSV-2 [1]; data not shown) was “began to fall off after 48 h”, the “Average number of virus particles in the nucleus” value (HSV-2 [2]; HSV-2, 105 μM tenatoprazole) was 31 particles and the “Virus particles in the cytoplasm” value (HSV-2 [2]; HSV-2, 105 μM tenatoprazole) was “did not detect virus particles”.
